ChEMBL document CHEMBL1806420, “Design, synthesis and antimycobacterial evaluation of novel 3-substituted-N-aryl-6,7-dimethoxy-3a,4-dihydro-3H-indeno[1,2-c]pyrazole-2-carboxamide analogues” (Bioorg Med Chem Lett, 2011)
≈ marks a conversion by molar mass, not a printed value.

Experiments:
[1] = system: Mycobacterium tuberculosis; experiment: Antimycobacterial activity against Mycobacterium tuberculosis H37Rv by agar dilution method; assay type: functional
[2] = system: Vero; experiment: Cytotoxicity against african green monkey Vero cells upto 62.5 ug/ml after 72 hrs by MTT assay; assay type: cell-based; conditions: chlorocebus sabaeus

SMILES | MIC [1] | Activity [2]
COc1cc2c(cc1OC)C1=NN(C(=O)Nc3ccc(F)cc3)C(c3ccncc3)C1C2 (configuration not stated) | 3.12 µM (≈ 1.35 µg/mL) | Non-toxic
COc1cc2c(cc1OC)C1=NN(C(=O)Nc3ccc(F)c(Cl)c3)C(c3ccccc3)C1C2 (configuration not stated) | 6.25 µM (≈ 2.91 µg/mL) | Non-toxic
NNC(=O)c1ccncc1 [ISONIAZID] | 0.78 µM (≈ 0.107 µg/mL) | 
COc1ccc(C2C3Cc4cc(OC)c(OC)cc4C3=NN2C(=O)Nc2ccc(F)cc2)cc1 (configuration not stated) | 10 µM (≈ 4.61 µg/mL) | Non-toxic
CO[C@H]1/C=C/O[C@@]2(C)Oc3c(C)c(O)c4c(O)c(c(/C=N/N5CCN(C)CC5)c(O)c4c3C2=O)NC(=O)/C(C)=C\C=C\[C@H](C)[C@H](O)[C@@H](C)[C@@H](O)[C@@H](C)[C@H](OC(C)=O)[C@@H]1C [RIFAMPIN] | 0.006 µM (≈ 0.00494 µg/mL) | 
COc1cc2c(cc1OC)C1=NN(C(=O)Nc3ccc(F)cc3)C(c3ccc(F)cc3)C1C2 (configuration not stated) | 0.78 µM (≈ 0.351 µg/mL) | Non-toxic
COc1ccc(C2C3Cc4cc(OC)c(OC)cc4C3=NN2C(=O)Nc2ccc(Br)cc2)cc1 (configuration not stated) | > 10 µM | Non-toxic
COc1cc2c(cc1OC)C1=NN(C(=O)Nc3ccc(F)c(Cl)c3)C(c3ccc(F)cc3)C1C2 (configuration not stated) | 0.78 µM (≈ 0.377 µg/mL) | Non-toxic
COc1cc2c(cc1OC)C1=NN(C(=O)Nc3ccc(F)c(Cl)c3)C(c3ccncc3)C1C2 (configuration not stated) | > 6.25 µM | 
COc1cc2c(cc1OC)C1=NN(C(=O)Nc3ccc(F)cc3)C(c3ccccc3Cl)C1C2 (configuration not stated) | 6.25 µM (≈ 2.91 µg/mL) | Non-toxic
COc1cc2c(cc1OC)C1=NN(C(=O)Nc3ccc(Br)cc3)C(c3ccncc3)C1C2 (configuration not stated) | 6.25 µM (≈ 3.08 µg/mL) | Non-toxic
COc1cc2c(cc1OC)C1=NN(C(=O)Nc3ccc(Br)cc3)C(c3ccc(F)cc3)C1C2 (configuration not stated) | 3.12 µM (≈ 1.59 µg/mL) | Non-toxic
COc1ccc(C2C3Cc4cc(OC)c(OC)cc4C3=NN2C(=O)Nc2ccc(F)c(Cl)c2)cc1 (configuration not stated) | > 6.25 µM | 
COc1cc2c(cc1OC)C1=NN(C(=O)Nc3ccc(Br)cc3)C(c3ccccc3)C1C2 (configuration not stated) | > 6.25 µM | 
COc1cc2c(cc1OC)C1=NN(C(=O)Nc3ccc(F)cc3)C(c3ccccc3)C1C2 (configuration not stated) | > 6.25 µM | 
COc1ccc(C2C3Cc4cc(OC)c(OC)cc4C3=NN2C(=O)Nc2ccc(F)c(Cl)c2)cc1OC (configuration not stated) | > 6.25 µM | 
COc1ccc(C2C3Cc4cc(OC)c(OC)cc4C3=NN2C(=O)Nc2ccc(Br)cc2)cc1OC (configuration not stated) | > 10 µM | Non-toxic
COc1cc2c(cc1OC)C1=NN(C(=O)Nc3ccc(Br)cc3)C(c3ccccc3Cl)C1C2 (configuration not stated) | > 6.25 µM | 
COc1cc2c(cc1OC)C1=NN(C(=O)Nc3ccc(F)c(Cl)c3)C(c3ccccc3Cl)C1C2 (configuration not stated) | 6.25 µM (≈ 3.13 µg/mL) | Non-toxic
COc1ccc(C2C3Cc4cc(OC)c(OC)cc4C3=NN2C(=O)Nc2ccc(F)cc2)cc1OC (configuration not stated) | > 10 µM | Non-toxic
